Earlier results, collected in US10627374B2, “LC-MS configuration for purification and detection of analytes having a broad range of hydrophobicites” (COHESIVE TECHNOLOGIES INC., priority 2010, dated 2020).
Read-outs that look alike come from different tables or passages of the source.

Row | logP (Table 2) | logP (Table 1) | log P (approximate) | SMILES
1 | −0.9 | – | – | O=c1[nH]cc(F)c(=O)[nH]1 [5-Fluorouracil]
2 | −1.15 | −1.15 | – | CS(=O)(=O)OCCCCOS(C)(=O)=O [Busulfan]
3 | 1.26 | 1.26 | – | C[C@]12CCC(=O)C=C1CC[C@@H]1[C@@H]2[C@@H](O)C[C@@]2(C)[C@H]1CC[C@]2(O)C(=O)CO [Cortisol (hydrocortisone)]
4 | 5.01 | 5.01 | about 5.01 | CO[C@H]1C[C@@H]2CC[C@@H](C)[C@@](O)(O2)C(=O)C(=O)N2CCCC[C@H]2C(=O)O[C@H]([C@H](C)C[C@@H]2CC[C@@H](OCCO)[C@H](OC)C2)CC(=O)[C@H](C)/C=C(\C)[C@@H](O)[C@@H](OC)C(=O)[C@H](C)C[C@H](C)/C=C/C=C/C=C/1C [Everolimus]
5 | 0.94 | 0.94 | – | CN(Cc1cnc2nc(N)nc(N)c2n1)c1ccc(C(=O)N[C@@H](CCC(=O)O)C(=O)O)cc1 [Methotrexate]
6 | 2.07 | 2.07 | – | C[C@]12C=CC(=O)C=C1CC[C@@H]1[C@@H]2C(=O)C[C@@]2(C)[C@H]1CC[C@]2(O)C(=O)CO [Prednisone]
7 | 3.3 | 3.3 | – | C=CC[C@@H]1/C=C(\C)C[C@H](C)C[C@H](OC)[C@H]2O[C@@](O)(C(=O)C(=O)N3CCCC[C@H]3C(=O)O[C@H](/C(C)=C/[C@@H]3CC[C@@H](O)[C@H](OC)C3)[C@H](C)[C@@H](O)CC1=O)[C@H](C)C[C@@H]2OC [Tacrolimus]
